Data as given in patent US20170369475A1, “Flibanserin Hydrate” (Sandoz AG, priority 2016, published 2017).
“Also recorded” adds a separate entry of the source.

Assay: Gravimetric moisture sorption (GMS)
Type: physicochemical
Conditions: 25±0.1° C.
Experimental: Moisture sorption isotherms were recorded with an SPSx-1 μ moisture sorption analyzer (ProUmid, Ulm). The measurement cycle was started at ambient relative humidity (RH) of 30%. RH was then decreased to 5% in 5% steps, followed by a further decrease to 3% and to 0%. […] Finally, RH was increased to ambient relative humidity of 30% in 5% steps.
The time per step was set to a minimum of 2 hours and a maximum of 6 hours. If an equilibrium condition with a constant mass of ±0.01% within 1 hour was reached before the maximum time for all examined samples the sequential humidity step was applied before the maximum time of 6 hours. If no equilibrium was achieved the consecutive humidity step was applied after the maximum time of 6 hours. The temperature was 25±0.1° C.
Therefore, flibanserin hydrate of the present invention can be assigned as being non-hygroscopic.

O=c1[nH]c2ccccc2n1CCN1CCN(c2cccc(C(F)(F)F)c2)CC1 [flibanserin hydrate]
hysteresis between sorption and desorption isotherms (GMS, 0 to 95% RH): no significant hysteresis
hygroscopicity / water uptake or loss (in words) (GMS, 0 to 95% RH, hydrate): neither significant water uptake nor loss; also recorded: non-hygroscopic
physical form after the GMS experiment (PXRD) (after sorption/desorption cycle 0-95-0% RH): same PXRD
mass difference between 0 and 95% RH (equilibrium mass change, GMS) (sorption/desorption cycle 0-95% RH): 0.2 weight %
